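Values below derive from 48-hour exposures of cells grown in 96-well plates, with endpoints linearly interpolated between the two concentrations bracketing the appropriate inhibition level. GI50: concentration for 50% inhibition of growth. Definition used: TGI = concentration required for complete inhibition of growth.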
Key:
Assay in all cases: NCI tumour cell line growth inhibition, 48 h
OVCAR-3 ovarian = tested on: OVCAR-3 ovarian
KM12 colon = tested on: KM12 colon
HS 578T breast = tested on: HS 578T breast
HCT-15 colon = tested on: HCT-15 colon
SF-539 CNS = tested on: SF-539 CNS
SF-295 CNS = tested on: SF-295 CNS
OVCAR-5 ovarian = tested on: OVCAR-5 ovarian
MALME-3M melanoma = tested on: MALME-3M melanoma
NCI-H23 lung = tested on: NCI-H23 lung
MCF7 breast = tested on: MCF7 breast
SN12C renal = tested on: SN12C renal
NCI-H460 lung = tested on: NCI-H460 lung
SR leukemia = tested on: SR leukemia
TK-10 renal = tested on: TK-10 renal
BT-549 breast = tested on: BT-549 breast
SF-268 CNS = tested on: SF-268 CNS
PC-3 prostate = tested on: PC-3 prostate
MDA-MB-435 = tested on: MDA-MB-435
SNB-75 CNS = tested on: SNB-75 CNS
EKVX NSCLC = tested on: EKVX NSCLC
ACHN renal = tested on: ACHN renal
M14 melanoma = tested on: M14 melanoma
MOLT-4 leukemia = tested on: MOLT-4 leukemia
UACC-257 melanoma = tested on: UACC-257 melanoma
CCRF-CEM leukemia = tested on: CCRF-CEM leukemia
UO-31 renal = tested on: UO-31 renal
SK-MEL-5 melanoma = tested on: SK-MEL-5 melanoma
HT29 colon = tested on: HT29 colon
COLO 205 colon = tested on: COLO 205 colon
RPMI-8226 leukemia = tested on: RPMI-8226 leukemia
T-47D breast = tested on: T-47D breast
NCI/ADR-RES ovarian = tested on: NCI/ADR-RES ovarian
SK-MEL-28 melanoma = tested on: SK-MEL-28 melanoma
UACC-62 melanoma = tested on: UACC-62 melanoma
HOP-62 NSCLC = tested on: HOP-62 NSCLC
A549 NSCLC = tested on: A549 NSCLC
OVCAR-4 ovarian = tested on: OVCAR-4 ovarian
RXF 393 renal = tested on: RXF 393 renal
LOX IMVI melanoma = tested on: LOX IMVI melanoma
HL-60(TB) leukemia = tested on: HL-60(TB) leukemia
U251 CNS = tested on: U251 CNS
DU-145 prostate = tested on: DU-145 prostate
OVCAR-8 ovarian = tested on: OVCAR-8 ovarian
SW-620 colon = tested on: SW-620 colon
SK-OV-3 ovarian = tested on: SK-OV-3 ovarian
HCT-116 colon = tested on: HCT-116 colon
MDA-MB-231 breast = tested on: MDA-MB-231 breast
K-562 leukemia = tested on: K-562 leukemia
SNB-19 CNS = tested on: SNB-19 CNS
IGROV1 ovarian = tested on: IGROV1 ovarian
CAKI-1 renal = tested on: CAKI-1 renal
786-0 renal = tested on: 786-0 renal
HCC-2998 colon = tested on: HCC-2998 colon
NCI-H226 lung = tested on: NCI-H226 lung
HOP-92 NSCLC = tested on: HOP-92 NSCLC
NCI-H522 lung = tested on: NCI-H522 lung
SK-MEL-2 melanoma = tested on: SK-MEL-2 melanoma

CC(=O)c1c(-c2ccco2)c(C#N)c(=S)n(C2OC(CO)C(O)C(O)C2O)c1-c1ccccc1 (stereo not drawn)
TGI (OVCAR-3 ovarian): > 100 µM | TGI (KM12 colon): > 100 µM | TGI (HS 578T breast): > 100 µM | TGI (HCT-15 colon): > 100 µM | TGI (SF-539 CNS): > 100 µM | TGI (SF-295 CNS): > 100 µM | TGI (OVCAR-5 ovarian): > 100 µM | TGI (MALME-3M melanoma): > 100 µM | TGI (NCI-H23 lung): > 100 µM | TGI (MCF7 breast): > 100 µM | TGI (SN12C renal): > 100 µM | TGI (NCI-H460 lung): > 100 µM | TGI (SR leukemia): > 100 µM | TGI (TK-10 renal): > 100 µM | TGI (BT-549 breast): > 100 µM | TGI (SF-268 CNS): > 100 µM | TGI (PC-3 prostate): > 100 µM | TGI (MDA-MB-435): > 100 µM | TGI (SNB-75 CNS): > 100 µM | TGI (EKVX NSCLC): > 100 µM | TGI (ACHN renal): > 100 µM | TGI (M14 melanoma): > 100 µM | TGI (MOLT-4 leukemia): > 100 µM | TGI (UACC-257 melanoma): > 100 µM | TGI (CCRF-CEM leukemia): > 100 µM | TGI (UO-31 renal): > 100 µM | TGI (SK-MEL-5 melanoma): > 100 µM | TGI (HT29 colon): > 100 µM | TGI (COLO 205 colon): > 100 µM | TGI (RPMI-8226 leukemia): > 100 µM | TGI (T-47D breast): > 100 µM | TGI (NCI/ADR-RES ovarian): > 100 µM | TGI (SK-MEL-28 melanoma): > 100 µM | TGI (UACC-62 melanoma): > 100 µM | TGI (HOP-62 NSCLC): > 100 µM | TGI (A549 NSCLC): > 100 µM | TGI (OVCAR-4 ovarian): > 100 µM | TGI (RXF 393 renal): > 100 µM | TGI (LOX IMVI melanoma): > 100 µM | TGI (HL-60(TB) leukemia): 85.9 µM | TGI (U251 CNS): > 100 µM | TGI (DU-145 prostate): > 100 µM | TGI (OVCAR-8 ovarian): > 100 µM | TGI (SW-620 colon): > 100 µM | TGI (SK-OV-3 ovarian): > 100 µM | TGI (HCT-116 colon): > 100 µM | TGI (MDA-MB-231 breast): > 100 µM | TGI (K-562 leukemia): > 100 µM | TGI (SNB-19 CNS): 59.7 µM | TGI (IGROV1 ovarian): > 100 µM | TGI (CAKI-1 renal): > 100 µM

CCN(CC)CCn1c(N)c(-c2nc3ccccc3n2C)c2nc(C#N)c(C#N)nc21
GI50 (OVCAR-3 ovarian): 1.52 µM | TGI (OVCAR-3 ovarian): 7.31 µM | GI50 (KM12 colon): 5.65 µM | TGI (KM12 colon): 20.3 µM | GI50 (HS 578T breast): 2.52 µM | TGI (HS 578T breast): 11.7 µM | GI50 (HCT-15 colon): 5.9 µM | TGI (HCT-15 colon): > 27.1 µM | GI50 (SF-539 CNS): 2.8 µM | TGI (SF-539 CNS): 9.43 µM | GI50 (SF-295 CNS): 5.62 µM | TGI (SF-295 CNS): 15.6 µM | GI50 (OVCAR-5 ovarian): 3.96 µM | TGI (OVCAR-5 ovarian): 12.7 µM | GI50 (NCI-H23 lung): 1.7 µM | TGI (NCI-H23 lung): 16.2 µM | GI50 (MCF7 breast): 3.08 µM | TGI (MCF7 breast): > 50 µM | GI50 (SN12C renal): 3.09 µM | TGI (SN12C renal): 14.2 µM | GI50 (NCI-H460 lung): 4.58 µM | TGI (NCI-H460 lung): 38.5 µM | GI50 (SR leukemia): 12.2 µM | TGI (SR leukemia): > 50 µM | GI50 (TK-10 renal): 7.16 µM | TGI (TK-10 renal): 14.2 µM | GI50 (786-0 renal): 1.01 µM | TGI (786-0 renal): 2.91 µM | GI50 (BT-549 breast): 7.64 µM | TGI (BT-549 breast): 18.3 µM | GI50 (SF-268 CNS): 3.64 µM | TGI (SF-268 CNS): 22.4 µM | GI50 (PC-3 prostate): 1.8 µM | TGI (PC-3 prostate): > 19.5 µM | GI50 (MDA-MB-435): 6.23 µM | TGI (MDA-MB-435): > 32.4 µM | GI50 (HCC-2998 colon): 0.696 µM | TGI (HCC-2998 colon): 1.41 µM | GI50 (NCI-H226 lung): 9.57 µM | TGI (NCI-H226 lung): 39.8 µM | GI50 (EKVX NSCLC): 7.1 µM | TGI (EKVX NSCLC): 20.5 µM | GI50 (ACHN renal): 0.696 µM | TGI (ACHN renal): 1.53 µM | GI50 (M14 melanoma): 7.21 µM | TGI (M14 melanoma): 30.8 µM | GI50 (MOLT-4 leukemia): 1.81 µM | TGI (MOLT-4 leukemia): 11.1 µM | GI50 (UACC-257 melanoma): 2.23 µM | TGI (UACC-257 melanoma): 10.3 µM | GI50 (CCRF-CEM leukemia): 4.25 µM | TGI (CCRF-CEM leukemia): 37.9 µM | GI50 (UO-31 renal): 2.06 µM | TGI (UO-31 renal): 6.61 µM | GI50 (SK-MEL-5 melanoma): 3.04 µM | TGI (SK-MEL-5 melanoma): 12.8 µM | GI50 (COLO 205 colon): 3.84 µM | TGI (COLO 205 colon): > 28.1 µM | GI50 (RPMI-8226 leukemia): 1.97 µM | TGI (RPMI-8226 leukemia): > 12.1 µM | GI50 (T-47D breast): 1.68 µM | GI50 (NCI/ADR-RES ovarian): 3.1 µM | TGI (NCI/ADR-RES ovarian): 8.86 µM | GI50 (SK-MEL-28 melanoma): 0.6 µM | TGI (SK-MEL-28 melanoma): 3.02 µM | GI50 (UACC-62 melanoma): 3.44 µM | TGI (UACC-62 melanoma): 15 µM | GI50 (HOP-62 NSCLC): 2.65 µM | TGI (HOP-62 NSCLC): 11 µM | GI50 (A549 NSCLC): 3.2 µM | TGI (A549 NSCLC): 13.7 µM | GI50 (OVCAR-4 ovarian): 1.86 µM | TGI (OVCAR-4 ovarian): 9.91 µM | GI50 (RXF 393 renal): 1.98 µM | TGI (RXF 393 renal): 4.46 µM | GI50 (HOP-92 NSCLC): 2.5 µM | TGI (HOP-92 NSCLC): 12.1 µM | GI50 (LOX IMVI melanoma): 0.97 µM | TGI (LOX IMVI melanoma): 2.62 µM | GI50 (HL-60(TB) leukemia): 2.84 µM | TGI (HL-60(TB) leukemia): > 50 µM | GI50 (U251 CNS): 1.27 µM | TGI (U251 CNS): 4.06 µM | GI50 (DU-145 prostate): 3.93 µM | TGI (DU-145 prostate): 13 µM | GI50 (OVCAR-8 ovarian): 3.43 µM | TGI (OVCAR-8 ovarian): 13.8 µM | GI50 (SW-620 colon): 2.59 µM | TGI (SW-620 colon): > 21.8 µM | GI50 (SK-OV-3 ovarian): 5.21 µM | TGI (SK-OV-3 ovarian): 14.3 µM | GI50 (NCI-H522 lung): 3.72 µM | TGI (NCI-H522 lung): 24.9 µM | GI50 (HCT-116 colon): 1.94 µM | TGI (HCT-116 colon): > 18.5 µM | GI50 (MDA-MB-231 breast): 0.295 µM | TGI (MDA-MB-231 breast): 1.71 µM | GI50 (SK-MEL-2 melanoma): 6.28 µM | TGI (SK-MEL-2 melanoma): 25.6 µM | GI50 (K-562 leukemia): 3.31 µM | TGI (K-562 leukemia): > 42.2 µM | GI50 (SNB-19 CNS): 7.3 µM | TGI (SNB-19 CNS): 21.5 µM | GI50 (IGROV1 ovarian): 1.3 µM | TGI (IGROV1 ovarian): 14.3 µM | GI50 (CAKI-1 renal): 3.7 µM | TGI (CAKI-1 renal): 11.2 µM
